Source: publication PMC7170309, “Imidazopyridine-fused [1,3]diazepinones: modulations of positions 2 to 4 and their impacts on the anti-melanoma activity” (Journal of Enzyme Inhibition and Medicinal Chemistry, 2020)

Legend:
Type in all cases: cell-based, human
[1] = tested on: MDA-MB-435 melanoma cells; assay: Neutral red uptake (NRU) viability assay, MDA-MB-435; settings: Homo sapiens, MDA-MB-435; NRU assay, 72 h, mean ± SD of three experiments
MOLT-4 = assay: NCI-60 SRB assay, MOLT-4 (Leukemia); settings: 10 µM, 48 h; for G%: growth vs untreated control
Procedure: (§1) Primary anticancer assay was performed on a panel of 60 human cancer cell lines derived from nine neoplastic diseases, in accordance with the protocol of the Drug Evaluation Branch, National Cancer Institute, Bethesda, Maryland, USA[22]. Cells were incubated with tested compounds at 10 µM for 48 h. The growth percentage was evaluated spectrophotometrically using a protein binding dye, SRB. Results for each tested compound were reported as the percent of growth of treated cells when compared to untreated control cells.
(§2) To better compare the activity profile of these two series of compounds, compounds 5 and 8 were selected and then evaluated towards a panel of sixty cancer cell lines corresponding to nine different cancer types, i.e. leukaemia, melanoma, as well as lung, colon, central nervous system, ovarian, renal, prostate and breast cancers (NCI evaluation). Indeed, it is now well established that the growth inhibitory patterns of anticancer drugs against the NCI-60 cell line panel correlated well with their modes of action. For example, compounds that bind to tubulin have similar growth inhibition patterns regardless of which site on tubulin they bind[30]. […] Compounds were tested using the sulforhodamine B (SRB) assay that provides a direct cell density index. The amount of dye incorporated by the cells increases with the increase of the total protein biomass. Cells were incubated for 48 h with compounds at 10 µM concentration, then cell growth was evaluated spectrophotometrically and presented as the percent of untreated control cells. Values of the most sensitive cell lines were compared to those obtained with JMV5038 (Figure 4, for all data see SI).

A549/ATCC = assay: NCI-60 SRB assay, A549/ATCC (NSCLC); settings: 10 µM, 48 h; for G%: growth vs untreated control
Procedure: as §1, §2

HOP-62 = assay: NCI-60 SRB assay, HOP-62 (NSCLC); settings: 10 µM, 48 h; for G%: growth vs untreated control;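 for Mean G% - G%: mean growth across the NCI-60 panel minus this line's growth with positive meaning more sensitive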
Procedure: as §1, §2

NCI-H226 = assay: NCI-60 SRB assay, NCI-H226 (NSCLC); settings: 10 µM, 48 h; for G%: growth vs untreated control
Procedure: as §1, §2

NCI-H322M = assay: NCI-60 SRB assay, NCI-H322M (NSCLC); settings: 10 µM, 48 h; for G%: growth vs untreated control
Procedure: as §1, §2

COLO 205 = assay: NCI-60 SRB assay, COLO 205 (Colon Cancer); settings: 10 µM, 48 h; for G%: growth vs untreated control
Procedure: as §1, §2

HCC-2998 = assay: NCI-60 SRB assay, HCC-2998 (Colon Cancer); settings: 10 µM, 48 h; for G%: growth vs untreated control;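 for Mean G% - G%: mean growth across the NCI-60 panel minus this line's growth with positive meaning more sensitive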
Procedure: as §1, §2

SW-620 = assay: NCI-60 SRB assay, SW-620 (Colon Cancer); settings: 10 µM, 48 h; for G%: growth vs untreated control
Procedure: as §1, §2

SF-539 = assay: NCI-60 SRB assay, SF-539 (CNS Cancer); settings: 10 µM, 48 h; for G%: growth vs untreated control
Procedure: as §1, §2

U251 = assay: NCI-60 SRB assay, U251 (CNS Cancer); settings: 10 µM, 48 h; for G%: growth vs untreated control
Procedure: as §1, §2

LOX IMVI = assay: NCI-60 SRB assay, LOX IMVI (Melanoma); settings: 10 µM, 48 h; for G%: growth vs untreated control
Procedure: as §1, §2

SK-MEL-2 = assay: NCI-60 SRB assay, SK-MEL-2 (Melanoma); settings: 10 µM, 48 h; for G%: growth vs untreated control
Procedure: as §1, §2

SK-MEL-5 = assay: NCI-60 SRB assay, SK-MEL-5 (Melanoma); settings: 10 µM, 48 h; for G%: growth vs untreated control
Procedure: as §1, §2

OVCAR-4 = assay: NCI-60 SRB assay, OVCAR-4 (Ovarian Cancer); settings: 10 µM, 48 h; for G%: growth vs untreated control;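 for Mean G% - G%: mean growth across the NCI-60 panel minus this line's growth with positive meaning more sensitive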
Procedure: as §1, §2

OVCAR-5 = assay: NCI-60 SRB assay, OVCAR-5 (Ovarian Cancer); settings: 10 µM, 48 h; for G%: growth vs untreated control;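 for Mean G% - G%: mean growth across the NCI-60 panel minus this line's growth with positive meaning more sensitive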
Procedure: as §1, §2

OVCAR-8 = assay: NCI-60 SRB assay, OVCAR-8 (Ovarian Cancer); settings: 10 µM, 48 h; for G%: growth vs untreated control
Procedure: as §1, §2

NCI/ADR-RES = assay: NCI-60 SRB assay, NCI/ADR-RES (Ovarian Cancer); settings: 10 µM, 48 h; for G%: growth vs untreated control
Procedure: as §1, §2

SK-OV-3 = assay: NCI-60 SRB assay, SK-OV-3 (Ovarian Cancer); settings: 10 µM, 48 h; for G%: growth vs untreated control
Procedure: as §1, §2

A498 = assay: NCI-60 SRB assay, A498 (Renal Cancer); settings: 10 µM, 48 h; for G%: growth vs untreated control
Procedure: as §1, §2

SN12C = assay: NCI-60 SRB assay, SN12C (Renal Cancer); settings: 10 µM, 48 h; for G%: growth vs untreated control
Procedure: as §1, §2

MCF7 = assay: NCI-60 SRB assay, MCF7 (Breast Cancer); settings: 10 µM, 48 h; for G%: growth vs untreated control
Procedure: as §1, §2

BT-549 = assay: NCI-60 SRB assay, BT-549 (Breast Cancer); settings: 10 µM, 48 h; for G%: growth vs untreated control
Procedure: as §1, §2

`[N-]=[N+]=NCCCC[C@@H]1NC(c2ccc(Br)cc2)=Nc2nc3ccccn3c2C1=O` [Compound 16, (4S)-4-(4-azidobutyl)-2-(4-bromophenyl)-3,4-dihydro-5H-pyrido[1’,2’:1,2]imidazo[4,5-d][1,3]diazepin-5-one] was tested, and the IC50 [1] was 4.12 ± 0.22 µM, the “Mean G% - G%” value (MOLT-4) was 4,57% and the G% (MOLT-4) was 87,20%. The “Mean G% - G%” value (A549/ATCC) was 16,61%, the G% (A549/ATCC) was 75,16% and the “Mean G% - G%” value (HOP-62) was 14,42%. For the same compound, the G% (HOP-62) was 77,35%, the “Mean G% - G%” value (NCI-H226) was 3,58% and the G% (NCI-H226) was 88,19%. For the same compound, the “Mean G% - G%” value (NCI-H322M) was 0,41%, the G% (NCI-H322M) was 91,36% and the “Mean G% - G%” value (COLO 205) was -15,42%. For the same compound, the G% (COLO 205) was 107,19%, the “Mean G% - G%” value (HCC-2998) was -20,61% and the G% (HCC-2998) was 112,38%. For the same compound, the “Mean G% - G%” value (SW-620) was -0,19%, the G% (SW-620) was 91,96% and the “Mean G% - G%” value (SF-539) was -6,24%. The G% (SF-539) was 98,01%, the “Mean G% - G%” value (U251) was 0,74% and the G% (U251) was 91,03%. The “Mean G% - G%” value (LOX IMVI) was 5,56%, the G% (LOX IMVI) was 86,21% and the “Mean G% - G%” value (SK-MEL-2) was -16,61%. For the same compound, the G% (SK-MEL-2) was 108,38%, the “Mean G% - G%” value (SK-MEL-5) was 3,83% and the G% (SK-MEL-5) was 87,94%. The “Mean G% - G%” value (OVCAR-4) was -2,91%, the G% (OVCAR-4) was 94,68% and the “Mean G% - G%” value (OVCAR-5) was -11,70%. For the same compound, the G% (OVCAR-5) was 103,47%, the “Mean G% - G%” value (OVCAR-8) was 6,78% and the G% (OVCAR-8) was 84,99%. For the same compound, the “Mean G% - G%” value (NCI/ADR-RES) was -9,49%, the G% (NCI/ADR-RES) was 101,26% and the “Mean G% - G%” value (SK-OV-3) was 5,78%. For the same compound, the G% (SK-OV-3) was 85,99%, the “Mean G% - G%” value (A498) was 8,90% and the G% (A498) was 82,87%. The “Mean G% - G%” value (SN12C) was -4,64%, the G% (SN12C) was 96,41% and the “Mean G% - G%” value (MCF7) was 11,80%. The G% (MCF7) was 79,97%, the “Mean G% - G%” value (BT-549) was -13,82% and the G% (BT-549) was 105,59%.
`C[C@@H]1NC(c2csc3ccccc23)=Nc2nc3ccccn3c2C1=O` [Compound 8, (4S)-4-methyl-2-benzothiophen-3-yl-3,4-dihydro-5H-pyrido[1’,2’:1,2]imidazo[4,5-d][1,3]diazepin-5-one] was tested, and the IC50 [1] was 10.12 ± 0.08 µM, the “Mean G% - G%” value (MOLT-4) was -8,59% and the G% (MOLT-4) was 83,46%. The “Mean G% - G%” value (A549/ATCC) was 8,10%, the G% (A549/ATCC) was 66,77% and the “Mean G% - G%” value (HOP-62) was 23,74%. The G% (HOP-62) was 51,13%, the “Mean G% - G%” value (NCI-H226) was 2,63% and the G% (NCI-H226) was 72,24%. The “Mean G% - G%” value (NCI-H322M) was 10,06%, the G% (NCI-H322M) was 64,81% and the “Mean G% - G%” value (COLO 205) was -25,43%. The G% (COLO 205) was 100,30%, the “Mean G% - G%” value (HCC-2998) was -23,19% and the G% (HCC-2998) was 98,06%. For the same compound, the “Mean G% - G%” value (SW-620) was -0,70%, the G% (SW-620) was 75,57% and the “Mean G% - G%” value (SF-539) was -1,87%. For the same compound, the G% (SF-539) was 76,74%, the “Mean G% - G%” value (U251) was -12,47% and the G% (U251) was 87,34%. For the same compound, the “Mean G% - G%” value (LOX IMVI) was -18,67%, the G% (LOX IMVI) was 93,54% and the “Mean G% - G%” value (SK-MEL-2) was -20,08%. For the same compound, the G% (SK-MEL-2) was 94,95%, the “Mean G% - G%” value (SK-MEL-5) was 12,92% and the G% (SK-MEL-5) was 61,95%. The “Mean G% - G%” value (OVCAR-4) was 0,79%, the G% (OVCAR-4) was 74,08% and the “Mean G% - G%” value (OVCAR-5) was -32,82%. For the same compound, the G% (OVCAR-5) was 107,69%, the “Mean G% - G%” value (OVCAR-8) was -9,67% and the G% (OVCAR-8) was 84,54%. For the same compound, the “Mean G% - G%” value (NCI/ADR-RES) was -2,84%, the G% (NCI/ADR-RES) was 77,71% and the “Mean G% - G%” value (SK-OV-3) was 7,58%. For the same compound, the G% (SK-OV-3) was 67,29%, the “Mean G% - G%” value (A498) was 13,54% and the G% (A498) was 61,33%. For the same compound, the “Mean G% - G%” value (SN12C) was -9,24%, the G% (SN12C) was 84,11% and the “Mean G% - G%” value (MCF7) was 24,29%. For the same compound, the G% (MCF7) was 50,58%, the “Mean G% - G%” value (BT-549) was -11,85% and the G% (BT-549) was 86,72%.
In the case of `C[C@@H]1NC(c2ccc(Br)cc2)=Nc2nc3ccccn3c2C1=O` [JMV5038], the IC50 [1] is reported as 1.3 ± 0.53 µM, the “Mean G% - G%” value (MOLT-4) is reported as -3,27% and the G% (MOLT-4) is reported as 57,51%. The “Mean G% - G%” value (A549/ATCC) was -0,42%, the G% (A549/ATCC) was 54,66% and the “Mean G% - G%” value (HOP-62) was -1,60%. The G% (HOP-62) was 55,84%, the “Mean G% - G%” value (NCI-H226) was -14,04% and the G% (NCI-H226) was 68,28%. The “Mean G% - G%” value (NCI-H322M) was -19,71%, the G% (NCI-H322M) was 73,95% and the “Mean G% - G%” value (COLO 205) was 27,91%. For the same compound, the G% (COLO 205) was 26,33%, the “Mean G% - G%” value (HCC-2998) was -14,80% and the G% (HCC-2998) was 69,04%. For the same compound, the “Mean G% - G%” value (SW-620) was 16,28%, the G% (SW-620) was 37,96% and the “Mean G% - G%” value (SF-539) was -20,40%. The G% (SF-539) was 74,64%, the “Mean G% - G%” value (U251) was 0,29% and the G% (U251) was 53,95%. For the same compound, the “Mean G% - G%” value (LOX IMVI) was 1,80%, the G% (LOX IMVI) was 52,44% and the “Mean G% - G%” value (SK-MEL-2) was 6,87%. The G% (SK-MEL-2) was 47,37%, the “Mean G% - G%” value (SK-MEL-5) was 22,34% and the G% (SK-MEL-5) was 31,90%. The “Mean G% - G%” value (OVCAR-4) was -23,22%, the G% (OVCAR-4) was 77,46% and the “Mean G% - G%” value (OVCAR-5) was -28,14%. For the same compound, the G% (OVCAR-5) was 82,38%, the “Mean G% - G%” value (OVCAR-8) was -18,28% and the G% (OVCAR-8) was 72,52%. The “Mean G% - G%” value (NCI/ADR-RES) was 14,87%, the G% (NCI/ADR-RES) was 39,37% and the “Mean G% - G%” value (SK-OV-3) was -17,78%. The G% (SK-OV-3) was 72,02%, the “Mean G% - G%” value (A498) was -15,64% and the G% (A498) was 69,88%. For the same compound, the “Mean G% - G%” value (SN12C) was -37,53%, the G% (SN12C) was 91,77% and the “Mean G% - G%” value (MCF7) was 33,29%. For the same compound, the G% (MCF7) was 20,95%, the “Mean G% - G%” value (BT-549) was 4,92% and the G% (BT-549) was 49,32%.
